Patent US20100298141A1, “SUBSTITUTED PYRIDINE N-OXIDE HERBICIDES” (E. I. DU PONT DE NEMOURS AND COMPANY, priority 2007, published 2010)

Experiments:
[1] = tested on: catchweed bedstraw; assay: Test C pre-/postemergence test; format: in vivo, Galium aparine; conditions: Preemergence; for Plant response rating, Galium: 31 g ai/ha, scale 0 to 100 (0 no effect, 100 complete control); for Plant response rating (0 to 100), Galium: 250 g ai/ha
Summary of the method: (§1)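 Seeds were planted and treated preemergence with test chemical in a non-phytotoxic solvent mixture containing surfactant. Postemergence applications of the same formulation went onto plants 2 to 18 cm tall (1- to 4-leaf stage). A dash marks no test result.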

[2] = tested on: woolly cupgrass; assay: Test C pre-/postemergence test; format: in vivo, Eriochloa villosa; conditions: Preemergence; for Cupgrass, Woolly plant response rating: 62 g ai/ha, scale 0 to 100; for Plant response rating, Cupgrass, Woolly: 31 g ai/ha, scale 0 to 100 (0 no effect, 100 complete control); for Plant response rating (0 to 100), Cupgrass, Woolly: 250 g ai/ha
Summary of the method: as §1

[3] = tested on: cocklebur; assay: Test C pre-/postemergence test; format: in vivo, Xanthium strumarium; conditions: for Plant response rating, Cocklebur: 31 g ai/ha, scale 0 to 100 (0 no effect, 100 complete control)
Summary of the method: as §1

[4] = tested on: giant foxtail; assay: Test C pre-/postemergence test; format: in vivo, Setaria faberii; conditions: Preemergence; for Foxtail, Giant plant response rating: 62 g ai/ha, scale 0 to 100; for Plant response rating, Foxtail, Giant: 31 g ai/ha, scale 0 to 100 (0 no effect, 100 complete control); for Plant response rating (0 to 100), Foxtail, Giant: 250 g ai/ha
Summary of the method: as §1

[5] = tested on: velvetleaf; assay: Test C pre-/postemergence test; format: in vivo, Abutilon theophrasti; conditions: Preemergence; for Velvetleaf plant response rating: 62 g ai/ha, scale 0 to 100; for Plant response rating, Velvetleaf: 31 g ai/ha, scale 0 to 100 (0 no effect, 100 complete control)
Summary of the method: as §1

[6] = tested on: blackgrass; assay: Test C pre-/postemergence test; format: in vivo, Alopecurus myosuroides; conditions: for Plant response rating, Blackgrass: 31 g ai/ha, scale 0 to 100 (0 no effect, 100 complete control); for Plant response rating (0 to 100), Blackgrass: 250 g ai/ha
Summary of the method: as §1

[7] = tested on: corn; assay: Test C pre-/postemergence test; format: in vivo, Zea mays; conditions: for Plant response rating, Corn: 31 g ai/ha, scale 0 to 100 (0 no effect, 100 complete control); for Plant response rating (0 to 100), Corn: 250 g ai/ha
Summary of the method: as §1

[8] = tested on: velvetleaf; assay: Test A pre-/postemergence greenhouse test; format: in vivo, Abutilon theophrasti; conditions: for Velvetleaf plant response rating: 0 to 100 scale; for Plant response rating, Velvetleaf: 0 to 100 scale where 0 is no effect and 100 is complete control
Summary of the method: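 Sowing in loam/sand; same-day pre (directed soil spray) and post (foliar, 1–2 leaf, 2–10 cm) treatment with surfactant-containing non-phytotoxic solvent formulation; ~10 days in greenhouse; eye-scored injury against untreated plants.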

[9] = tested on: soybean; assay: Test C pre-/postemergence test; format: in vivo, Glycine max; conditions: Preemergence; for Soybean plant response rating: 62 g ai/ha, scale 0 to 100; for Plant response rating, Soybean: 31 g ai/ha, scale 0 to 100 (0 no effect, 100 complete control)
Summary of the method: as §1

[10] = tested on: green foxtail; assay: Test C pre-/postemergence test; format: in vivo, Setaria viridis; conditions: Preemergence; for Foxtail, Green plant response rating: 62 g ai/ha, scale 0 to 100; for Plant response rating, Foxtail, Green: 31 g ai/ha, scale 0 to 100 (0 no effect, 100 complete control); for Plant response rating (0 to 100), Foxtail, Green: 250 g ai/ha
Summary of the method: as §1

[11] = tested on: duck salad; assay: Test C flooded paddy test; format: in vivo, Heteranthera limosa; conditions: Flood
Summary of the method: (§2)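 In-water treatment: compound dosed into 3 cm flood over soil, water level unchanged throughout. Controls run alongside; visual assessment at day 13–15.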

[12] = tested on: downy brome; assay: Test C pre-/postemergence test; format: in vivo, Bromus tectorum; conditions: for Plant response rating, Bromegrass, Downy: 31 g ai/ha, scale 0 to 100 (0 no effect, 100 complete control); for Plant response rating (0 to 100), Bromegrass, Downy: 250 g ai/ha
Summary of the method: as §1

[13] = tested on: barnyardgrass; assay: Test C flooded paddy test; format: in vivo, Echinochloa crus-galli; conditions: Flood
Summary of the method: as §2

[14] = tested on: Italian ryegrass; assay: Test C pre-/postemergence test; format: in vivo, Lolium multiflorum; conditions: Preemergence; for Ryegrass, Italian plant response rating: 62 g ai/ha, scale 0 to 100; for Plant response rating, Ryegrass, Italian: 31 g ai/ha, scale 0 to 100 (0 no effect, 100 complete control)
Summary of the method: as §1

[15] = tested on: wild oat; assay: Test C pre-/postemergence test; format: in vivo, Avena fatua; conditions: Preemergence; for Oat, Wild plant response rating: 62 g ai/ha, scale 0 to 100; for Plant response rating, Oat, Wild: 31 g ai/ha, scale 0 to 100 (0 no effect, 100 complete control)
Summary of the method: as §1

[16] = tested on: morningglory; assay: Test C pre-/postemergence test; format: in vivo, Ipomoea coccinea; conditions: Preemergence; for Morningglory plant response rating: 62 g ai/ha, scale 0 to 100; for Plant response rating, Morningglory: 31 g ai/ha, scale 0 to 100 (0 no effect, 100 complete control)
Summary of the method: as §1

[17] = tested on: johnsongrass; assay: Test C pre-/postemergence test; format: in vivo, Sorghum halepense; conditions: Preemergence; for Johnsongrass plant response rating: 62 g ai/ha, scale 0 to 100; for Plant response rating, Johnsongrass: 31 g ai/ha, scale 0 to 100 (0 no effect, 100 complete control); for Plant response rating (0 to 100), Johnsongrass: 250 g ai/ha
Summary of the method: as §1

[18] = 62 g ai/ha, Preemergence, scale 0 to 100
[19] = preemergence, 125 g ai/ha, scale 0 (no effect) to 100 (complete control)
[20] = Postemergence, 125 g ai/ha, 0 is no effect, 100 is complete control
[21] = Postemergence, 500 g ai/ha, 0 is no effect, 100 is complete control
[22] = Preemergence, 125 g ai/ha, 0 no effect, 100 complete control
[23] = 31 g ai/ha, scale 0 to 100 (0 no effect, 100 complete control)
[24] = 62 g ai/ha, scale 0 to 100, 0 no effect, 100 complete control, 13 to 15 days
[25] = 125 g ai/ha, scale 0 to 100, 0 no effect, 100 complete control, 13 to 15 days
[26] = 250 g ai/ha, scale 0 to 100 (0 no effect, 100 complete control)

Cn1nc(C(F)(F)F)c(C[S+]([O-])c2ccc(Cl)c[n+]2[O-])c1Cl (racemic) [Compound 17]
Plant response rating, Galium [1]: 100 | Plant response rating (0 to 100), Galium [1]: 100 | Cupgrass, Woolly plant response rating [2]: 100 | Plant response rating, Cupgrass, Woolly [2]: 95 | Plant response rating (0 to 100), Cupgrass, Woolly [2]: 100 | Cocklebur plant response rating [3, 18]: 0 | Plant response rating, Cocklebur ([3]; Preemergence): 0 | Cocklebur plant response rating [3, 19]: 0 | Foxtail, Giant plant response rating [4]: 100 | Plant response rating, Foxtail, Giant [4]: 95 | Plant response rating (0 to 100), Foxtail, Giant [4]: 100 | Velvetleaf plant response rating [5]: 80 | Plant response rating, Velvetleaf [5]: 0 | Blackgrass plant response rating [6, 18]: 80 | Plant response rating, Blackgrass ([6]; Preemergence): 80 | Plant response rating (0 to 100), Blackgrass ([6]; Preemergence): 100 | Blackgrass plant response rating [6, 19]: 85 | Corn plant response rating [7, 18]: 85 | Plant response rating, Corn ([7]; Preemergence): 60 | Plant response rating (0 to 100), Corn ([7]; Preemergence): 100 | Corn plant response rating [7, 19]: 98 | Velvetleaf plant response rating [8, 20]: 50 | Velvetleaf plant response rating [8, 21]: 80 | Velvetleaf plant response rating [8, 22]: 60 | Plant response rating, Velvetleaf ([8]; Preemergence, 500 g ai/ha): 100 | Soybean plant response rating [9]: 20 | Plant response rating, Soybean [9]: 0 | Foxtail, Green plant response rating [10]: 100 | Plant response rating, Foxtail, Green [10]: 70 | Plant response rating (0 to 100), Foxtail, Green [10]: 100 | Plant response rating, Ducksalad [11, 23]: 60 | Plant response rating, Ducksalad [11, 24]: 80 | Plant response rating, Ducksalad [11, 25]: 85 | Plant response rating, Ducksalad [11, 26]: 95 | Bromegrass, Downy plant response rating [12, 18]: 40 | Plant response rating, Bromegrass, Downy ([12]; Preemergence): 40 | Plant response rating (0 to 100), Bromegrass, Downy ([12]; Preemergence): 85 | Bromegrass, Downy plant response rating [12, 19]: 80 | Plant response rating, Barnyardgrass [13, 23]: 20 | Plant response rating, Barnyardgrass [13, 24]: 65 | Plant response rating, Barnyardgrass [13, 25]: 85 | Plant response rating, Barnyardgrass [13, 26]: 85 | Ryegrass, Italian plant response rating [14]: 60 | Plant response rating, Ryegrass, Italian [14]: 30 | Oat, Wild plant response rating [15]: 40 | Plant response rating, Oat, Wild [15]: 0 | Morningglory plant response rating [16]: 85 | Plant response rating, Morningglory [16]: 0 | Johnsongrass plant response rating [17]: 100 | Plant response rating, Johnsongrass [17]: 98 | Plant response rating (0 to 100), Johnsongrass [17]: 100

Cc1cc[n+]([O-])c([S+]([O-])Cc2c(C(F)(F)F)nn(C)c2Cl)c1 (racemic) [Compound 20]
Galium plant response rating ([1]; 62 g ai/ha, scale 0 to 100): 85 | Plant response rating, Galium [1]: 80 | Plant response rating (0 to 100), Galium [1]: 100 | Cupgrass, Woolly plant response rating [2]: 70 | Plant response rating, Cupgrass, Woolly [2]: 0 | Plant response rating (0 to 100), Cupgrass, Woolly [2]: 100 | Cocklebur plant response rating [3, 18]: 0 | Plant response rating, Cocklebur ([3]; Preemergence): 0 | Plant response rating (0 to 100), Cocklebur ([3]; Preemergence, 250 g ai/ha): 20 | Cocklebur plant response rating [3, 19]: 0 | Foxtail, Giant plant response rating [4]: 98 | Plant response rating, Foxtail, Giant [4]: 85 | Plant response rating (0 to 100), Foxtail, Giant [4]: 100 | Velvetleaf plant response rating [5]: 5 | Plant response rating, Velvetleaf [5]: 0 | Blackgrass plant response rating [6, 18]: 98 | Plant response rating, Blackgrass ([6]; Preemergence): 70 | Plant response rating (0 to 100), Blackgrass ([6]; Preemergence): 100 | Blackgrass plant response rating [6, 19]: 100 | Corn plant response rating [7, 18]: 20 | Plant response rating, Corn ([7]; Preemergence): 0 | Plant response rating (0 to 100), Corn ([7]; Preemergence): 85 | Corn plant response rating [7, 19]: 50 | Velvetleaf plant response rating [8, 20]: 30 | Velvetleaf plant response rating [8, 21]: 60 | Velvetleaf plant response rating [8, 22]: 0 | Plant response rating, Velvetleaf ([8]; Preemergence, 500 g ai/ha): 60 | Soybean plant response rating [9]: 0 | Plant response rating, Soybean [9]: 0 | Foxtail, Green plant response rating [10]: 100 | Plant response rating, Foxtail, Green [10]: 98 | Plant response rating (0 to 100), Foxtail, Green [10]: 100 | Plant response rating, Ducksalad [11, 23]: 0 | Plant response rating, Ducksalad [11, 24]: 0 | Plant response rating, Ducksalad [11, 25]: 0 | Plant response rating, Ducksalad [11, 26]: 75 | Bromegrass, Downy plant response rating [12, 18]: 0 | Plant response rating, Bromegrass, Downy ([12]; Preemergence): 0 | Plant response rating (0 to 100), Bromegrass, Downy ([12]; Preemergence): 70 | Bromegrass, Downy plant response rating [12, 19]: 70 | Plant response rating, Barnyardgrass [13, 23]: 0 | Plant response rating, Barnyardgrass [13, 24]: 0 | Plant response rating, Barnyardgrass [13, 25]: 30 | Plant response rating, Barnyardgrass [13, 26]: 70 | Ryegrass, Italian plant response rating [14]: 60 | Plant response rating, Ryegrass, Italian [14]: 30 | Oat, Wild plant response rating [15]: 10 | Plant response rating, Oat, Wild [15]: 0 | Morningglory plant response rating [16]: 85 | Plant response rating, Morningglory [16]: 0 | Johnsongrass plant response rating [17]: 80 | Plant response rating, Johnsongrass [17]: 60 | Plant response rating (0 to 100), Johnsongrass [17]: 100
